The text below walks through data of patent US7815905B2, “Methods of increasing insulin sensitivity or decreasing insulin secretion by administering corticotropin releasing factor receptor-2 inhibitors” (Research Development Foundation, priority 2006, dated 2010).

The subject of series [1] is isolated rat islets. Put plainly: Insulin secretion from isolated rat islets. In kind it is cell-based. To be noted: exendin-4 10 nM + 8.4 mM glucose; listed as Ast2-B.
The target in the next series is T1, CRFR2 (Homo sapiens, UniProt Q13324).
T1 sequence (Q13324 1-411): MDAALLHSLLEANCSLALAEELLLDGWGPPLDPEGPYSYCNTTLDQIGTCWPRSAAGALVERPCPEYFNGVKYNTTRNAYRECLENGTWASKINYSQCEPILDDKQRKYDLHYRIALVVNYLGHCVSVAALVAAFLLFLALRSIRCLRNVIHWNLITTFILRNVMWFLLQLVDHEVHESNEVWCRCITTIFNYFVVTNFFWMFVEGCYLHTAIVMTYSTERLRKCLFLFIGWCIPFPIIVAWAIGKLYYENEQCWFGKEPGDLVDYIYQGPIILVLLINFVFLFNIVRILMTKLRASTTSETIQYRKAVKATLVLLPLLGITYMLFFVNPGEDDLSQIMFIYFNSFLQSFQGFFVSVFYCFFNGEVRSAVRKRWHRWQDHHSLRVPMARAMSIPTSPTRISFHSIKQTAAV
To be noted: Rivier et al. 2002; cited from earlier work.

The conditions of series [2]: Rivier et al., 2003; cited from earlier work.
The test system of series [3] is isolated rat islets. Put plainly: Insulin secretion from isolated rat islets. To be noted: isolated rat islets; for insulin secretion induced by 16.8 mM glucose: pretreated. Format: cell-based. The procedure:
FIG. 4a-b: The effect of CRFR2 antagonist on insulin secretion in isolated rat islets. (a) The effect of astressin2B (Ast2-B) on insulin secretion in response to glucose in isolated rat islets. […] The asterisk indicates a statistically significant difference between results from the control versus Ast2-B. (b) Isolated rat isles were pre-treated with anti-Ucn 3 IgG or control IgG followed by addition of indicated concentration of glucose. Y-axis indicates insulin secretion from the treated islets. The double asterisks indicate a statistically significant difference between the indicated treatments. […]
To assess the effect of CRFR2 antagonism on islet cell function secretion of insulin from isolated rat islets was studied. […] Thus, activation of CRFR2 by endogenous ligands is involved in insulin secretion induced by high levels of glucose.
In order to determine the role of Ucn 3 in glucose induced insulin secretion, isolated rat islets were pretreated with an anti-Ucn 3 IgG prior to glucose treatment.

In another series the test system is wild type mice. Briefly: Glucose tolerance test (GTT) in wild type mice. To be noted: fasted male wild type mice; 30 μg/kg IP 20 min prior to glucose 2 g/kg. In kind it is in vivo, mouse. The procedure: FIG. 1a-f: Metabolic phenotype of Ucn 2 null mice. […] The ability of the Ucn 2 null mice and wild type littermates to handle a glucose load was assessed using a standard glucose tolerance test (see example 1). Fasted male mice were injected intraperitoneally (IP) with glucose (2 g/kg body weight) and blood glucose levels were measured before and at 15, 30, 60, 90 and 120 min following glucose injection. […] Fasted male Ucn 2 null mice were injected IP with saline or with 0.1 μg/kg body weight Ucn 2, 20 min prior to glucose injection (2 g/kg body weight) and blood glucose levels were measured before and at 15, 30, 60 and 90 min following glucose injection. […] Fasted male wild type mice were injected IP with saline or with astressin2B (30 μg/kg body weight), 20 min prior to glucose injection (2 g/kg body weight), and blood glucose levels were measured before and at 15, 30, 60 and 90 min following glucose injection. (d) The enhanced glucose tolerance in the Ucn 2 null mice is not due to increased insulin secretion. Fasted male mice were injected with glucose (3 g/kg body weight, IP) and blood samples were collected at 2, 5, 15 and 30 min following glucose injection and insulin was measured by radioimmunoassay. […] Fasted male mice were injected with insulin (0.75 U/kg body weight, IP) and blood glucose levels were measured before and at 15, 30, 60 and 90 min following insulin injection. […]

For a further series, the system named is male rats. Put plainly: Glucose induced insulin release in vivo in male rats. Details: species or system rat. Here is the method:
FIG. 9a-c: The effects of CRFR2 signaling on insulin secretion. […] Plasma insulin (b) and glucose (c) levels in male rats treated with vehicle or Ast2-B (0.09-9 nmol/kg). *, P<0.05 vs. vehicle.
In order to determine whether blocking of CRFR2 function also modulates glucose induced insulin release in vivo, various doses of Ast2-B (0.09-9 nmol/kg) or vehicle were injected intravenously into male rats through a jugular vein cannula 20 min before injection of a glucose (2.8 mmol/kg) bolus.

“Also recorded” adds a separate entry of the source.

“astressin2B: CRFR2 selective antagonist; modified sauvagine polypeptide (SEQ ID NO:10), Rivier et al., 2002”: the “Exendin-4 stimulated insulin release” value with isolated rat islets [1] was “greatly attenuated; also recorded: the effect was attenuated”. For the same substance, the “time of administration needed for CRFR2 antagonist activity” value in the series with CRFR2 was “active when administered concurrently with the CRFR2 agonist”. Further, in series [2], the “crossing of the blood brain barrier” value was “unlikely to cross the blood brain barrier”. Moreover, the “insulin secretion induced by 16.8 mM glucose” value with isolated rat islets [3] is recorded as “has CRFR2 antagonist activity”; in the series with isolated rat islets [3] (listed as Ast2-B), “significantly attenuated; also recorded: attenuated by Ast2-B in a dose-dependent manner”; in the series on isolated rat islets [3] (listed as astressin-2B) it was “attenuates 16.8 mM glucose-induced insulin secretion in a dose-dependent manner”. Besides, in the series with isolated rat islets [3] (2.8 mM glucose), the “insulin release induced by 2.8 mM glucose” value is recorded as “did not affect”. For the same substance, the “insulin secretion induced by 8.4 mM glucose” value in the series with isolated rat islets [3] was “did not significantly modify”; in the series on isolated rat islets [3] (listed as Ast2-B), “did not affect”. Further, the “insulin release induced by 10 mM glucose” value in the series with isolated rat islets [3] (10 mM glucose) is given as “did not affect”. For the same substance, in the series on wild type mice, the “glucose tolerance test profile” value is given as “has CRFR2 antagonist activity; also recorded: mirrors that of Ucn 2 null mice; also recorded: mimics the Ucn 2 mutant mice glucose tolerance test profile”. Also, the “glucose-induced insulin secretion, highest dose compared to 0.9 nmol/kg” value in the series on male rats (9 nmol/kg intravenously) is “slightly less effective”. For the same substance, the plasma glucose levels entry in the series on male rats (0.09-9 nmol/kg intravenously 20 min before glucose 2.8 mmol/kg bolus) is “mirrored the results of insulin”. Further, the “glucose-induced insulin secretion (plasma insulin)” value in the series with male rats (0.09-9 nmol/kg intravenously 20 min before glucose 2.8 mmol/kg bolus, listed as Ast2-B) is “attenuated glucose-induced insulin secretion in a dose dependent manner; also recorded: attenuates glucose induced insulin secretion”.
